According to the RepoRT retention time repository:

Test: RP, Advanced Chromatography Technologies ACE C18, 50 × 2.1 mm, 3 µm; A: water + 10 mM ammonium acetate; B: acetonitrile; gradient (min/%B) 0/5 1/5 21/95
Conditions: stereoisomer not certain

| SMILES | LC retention time [min] |
| --- | --- |
| c1ccc2ncccc2c1 [Quinoline] | 6.1 |
| CC(C)(C)c1cc(-n2nc3ccc(Cl)cc3n2)c(O)c(C(C)(C)C)c1 [2-4-di-tert-butyl-6-(5-chlorobenzotriazol-2-yl)phenol] | 20.7 |
| CCC(C)(C)c1cc(-n2nc3ccccc3n2)c(O)c(C(C)(C)CC)c1 [2-(2H-benzotriazol-2-yl)-4-6-di-tert-pentylphenol] | 20.8 |
| Nc1c(Cl)cc([N+](=O)[O-])cc1Cl [2,6-dichloro-4-nitroaniline] | 9.41 |
| c1ccc2sc(SNC3CCCCC3)nc2c1 [N-cyclohexyl-2-benzothiazolesulphenamide] | 13.7 |
| Cc1cc2n[nH]nc2cc1C [5-6-Dimethyl-2H-benzotriazole] | 5.73 |
| Nc1ccc([N+](=O)[O-])cc1[N+](=O)[O-] [2-4-dinitroaniline] | 7.02 |
| Nc1c(Cl)cc([N+](=O)[O-])cc1[N+](=O)[O-] [6-chloro-2-4-dinitroaniline] | 8.9 |
| CC(C)COC(=O)c1ccccc1C(=O)OCC(C)C [Diisobutyl phthalate] | 14 |
| Cc1ccc(O)c(-n2nc3ccccc3n2)c1 [2-(benzotriazol-2-yl)-4-methylphenol] | 13.3 |
| Nc1c(Br)cc([N+](=O)[O-])cc1[N+](=O)[O-] [2-bromo-4,6-dinitroaniline] | 8.73 |
| c1ccc2scnc2c1 [Benzothiazole] | 5.38 |
| CSc1nc2ccccc2s1 [2-methylthiobenzothiazole] | 9.58 |
| c1ccc2n[nH]nc2c1 [1-H-benzotriazole] | 3.14 |
| c1ccc2sc(SSc3nc4ccccc4s3)nc2c1 [2-2'-dithiobisbenzothiazole] | 14.6 |
| CC(C)(c1ccccc1)c1cc(-n2nc3ccccc3n2)c(O)c(C(C)(C)c2ccccc2)c1 | 19.4 |
| Cc1ccc2n[nH]nc2c1 [5-Methyl-1H-benzotriazole] | 4.65 |
